Patent publication US6338963B1, “Use of carbon monoxide dependent guanylyl cyclase modifiers to stimulate neuritogenesis” (NeoTherapeutics, Inc., priority 1994, dated 2002)

Legend:
mice [1] = experiment: Prophylaxis of age-induced memory deficit (win-shift, monthly); type: in vivo; conditions: 30 mg/kg/day in drinking water from 14 months of age
Description: It has been observed that age-induced memory deficits typically begin to manifest themselves in mice between 14 and 16 months of age. Therefore, the treatment of mice was begun at 14 months of age with AIT-082 (30 mg/kg/day) in their drinking water. The animals were measured monthly for their memory using the win-shift foraging tests previously described.

mice [2] = experiment: Exploratory activity in novel large cage; type: in vivo; conditions: 30 minutes
Description: To measure exploratory behavior, subjects received saline or AIT-082 administration, were placed in a novel large cage (25×48×16 cm, W×L×H), and movement was measured at one-minute intervals for 30 minutes. The large cage (San Diego Instruments, San Diego, Calif.) was equipped with vertical detectors and rearing movements were also recorded.

BDNF mRNA = experiment: RT-PCR of growth factor mRNA after T8 spinal cord hemisection: BDNF; type: in vivo, Wistar rats
mice [3] = experiment: Hot plate nocioception; type: in vivo; conditions: hot plate 55° C.
Description: Mice were placed on an electric hot plate (Ominitech) at 55° C. and the latency time until the subject licked his hind paw was measured. If there was no response by 45 seconds, the trial was terminated. By this test there was no effect of AIT-082 on nocioception.

mice [4] = experiment: Motor coordination, accelerating Roto-Rod treadmill; type: in vivo; conditions: AIT dose 0.005 mg/kg
Description: Motor coordination was measured using an accelerating Roto-Rod treadmill for mice (Ugo Basile Co.). At various times after treatment with saline or drug, mice were placed on the Roto-Rod, which accelerates to maximum speed over a 5 minute period. The time in seconds at which the subject falls off was recorded in Table B directly below. Each animal was tested 3 times and the mean time was recorded.

neocortical astrocytes = experiment: NGF-like immunoreactivity in astrocyte culture medium (ELISA); type: cell-based, mouse; conditions: astrocytes incubated with different concentrations
Description: Astrocytes appear to proliferate in response to extracellular guanosine or guanosine triphosphate (GTP). GTP or guanosine may also stimulate the release of trophic factors from cultures of neocortical astrocytes from neonatal mouse brains. Astrocytes were incubated with different concentrations of guanosine or GTP respectively. Neurotrophin imunoreactivity in the culture medium from treated cells was then measured by ELISA.
Briefly, 96 well Falcon plates (Fisher) were coated with […] of sheep mono-specific anti-NGF IgG (affinity column purified) contained in 0.1M sodium carbonate buffer pH 9.6. After an overnight incubation at 4° C. blocking solution (PBS with 10% goat serum) was added to remove excess antibody. After a four hour incubation at room temperature the plates were washed three times with PBS containing 0.05% Tween 20. The conditioned media and standard 2.5S HPLC purified NGF were added and incubated overnight. The next day plates were washed 3 times with PBS-0.05% Tween 20. The secondary antibody, rabbit mono-specific anti-NGF IgG conjugated with β-galactosidase (Pierce-SPDP method) (1:500 dilution) was added. The plates were incubated overnight at 4° C. The next day the plates were washed 3 times with PBS-0.05% Tween 20. […]
The ELISA assay detected neurotrophins NGF and NT-3 with ahnost equal affinity and BDNF with 100 times less affinity. […]

Structure (SMILES) | onset and severity of age-induced memory deficits (mice [1]) | exploratory activity (mice [2]) | BDNF mRNA level (BDNF mRNA; at the level of the lesion) | BDNF mRNA level (BDNF mRNA; caudal to lesion, 7 days) | BDNF mRNA level (BDNF mRNA; rostral to lesion, 3 days, 20 mg/kg day in drinking water, sham-operated over lesion animals) | BDNF mRNA level (BDNF mRNA; rostral to lesion, 7 days, lesioned treated vs lesioned not treated) | effect on nocioception (hot plate latency) (mice [3]) | Roto-Rod performance, Time (mice [4]) [s] | NGF-like immunoreactivity in the culture medium (neocortical astrocytes)
O=C(CCn1cnc2c(=O)[nH]cnc21)Nc1ccc(C(=O)O)cc1 [AIT-082, N-4-carboxyphenyl-3-(6-oxohydropurin-9-yl)propanamide] | delayed the onset and severity of memory deficits | No effects were noted | no significant differences | no significant effects | significantly increased | significantly higher | no effect | 162 ± 93 | 
Nc1nc2c(ncn2[C@@H]2O[C@H](CO)[C@@H](O)[C@H]2O)c(=O)[nH]1 [guanosine] |  |  |  |  |  |  |  |  | increased the amount of NGF-like immunoreactivity
